According to patent publication US20030186967A1, “Acylresorcinol derivatives are selective vitronectin receptor inhibitors” (American Home Products Corporation, priority 1998, published 2003):

Biological target: T1, Vitronectin receptor αVβ3 (Homo sapiens, UniProt P05106+P06756)
T1 construct: expressed in transfected cells; host or cells: 512P5 cells (plasma membrane preparation)
Experiment: Vitronectin Receptor αVβ3 Binding Assay
Details: read-out: VnR (IC50μM)

T1 sequence (P06756 31-889 limits assumed): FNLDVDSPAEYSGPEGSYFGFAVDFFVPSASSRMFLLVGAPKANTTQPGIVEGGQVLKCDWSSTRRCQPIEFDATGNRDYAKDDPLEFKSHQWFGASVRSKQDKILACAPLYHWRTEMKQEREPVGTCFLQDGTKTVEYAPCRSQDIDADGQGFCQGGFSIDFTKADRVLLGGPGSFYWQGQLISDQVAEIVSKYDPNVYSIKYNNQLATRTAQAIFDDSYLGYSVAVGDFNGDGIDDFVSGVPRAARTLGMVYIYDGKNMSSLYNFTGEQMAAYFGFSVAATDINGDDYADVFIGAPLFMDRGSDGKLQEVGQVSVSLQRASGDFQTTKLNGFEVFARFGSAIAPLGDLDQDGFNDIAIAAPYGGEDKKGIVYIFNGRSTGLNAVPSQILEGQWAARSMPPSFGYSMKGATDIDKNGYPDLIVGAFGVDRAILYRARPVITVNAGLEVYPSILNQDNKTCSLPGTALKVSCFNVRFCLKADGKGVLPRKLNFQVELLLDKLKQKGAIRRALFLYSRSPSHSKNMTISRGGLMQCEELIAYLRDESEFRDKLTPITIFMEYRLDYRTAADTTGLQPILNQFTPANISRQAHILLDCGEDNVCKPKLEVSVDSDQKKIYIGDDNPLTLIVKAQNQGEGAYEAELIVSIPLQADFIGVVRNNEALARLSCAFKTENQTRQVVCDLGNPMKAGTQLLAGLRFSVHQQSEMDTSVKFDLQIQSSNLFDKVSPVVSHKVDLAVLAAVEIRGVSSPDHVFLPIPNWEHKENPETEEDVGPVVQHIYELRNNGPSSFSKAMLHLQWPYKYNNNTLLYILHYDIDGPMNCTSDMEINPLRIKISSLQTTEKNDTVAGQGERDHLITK
T1 sequence (P06756 891-1048 partner limits assumed): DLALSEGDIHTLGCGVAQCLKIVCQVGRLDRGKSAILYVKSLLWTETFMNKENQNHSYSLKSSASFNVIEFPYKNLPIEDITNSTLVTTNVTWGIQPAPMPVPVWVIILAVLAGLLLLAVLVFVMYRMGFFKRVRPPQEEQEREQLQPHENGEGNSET
T1 sequence (P05106 27-788): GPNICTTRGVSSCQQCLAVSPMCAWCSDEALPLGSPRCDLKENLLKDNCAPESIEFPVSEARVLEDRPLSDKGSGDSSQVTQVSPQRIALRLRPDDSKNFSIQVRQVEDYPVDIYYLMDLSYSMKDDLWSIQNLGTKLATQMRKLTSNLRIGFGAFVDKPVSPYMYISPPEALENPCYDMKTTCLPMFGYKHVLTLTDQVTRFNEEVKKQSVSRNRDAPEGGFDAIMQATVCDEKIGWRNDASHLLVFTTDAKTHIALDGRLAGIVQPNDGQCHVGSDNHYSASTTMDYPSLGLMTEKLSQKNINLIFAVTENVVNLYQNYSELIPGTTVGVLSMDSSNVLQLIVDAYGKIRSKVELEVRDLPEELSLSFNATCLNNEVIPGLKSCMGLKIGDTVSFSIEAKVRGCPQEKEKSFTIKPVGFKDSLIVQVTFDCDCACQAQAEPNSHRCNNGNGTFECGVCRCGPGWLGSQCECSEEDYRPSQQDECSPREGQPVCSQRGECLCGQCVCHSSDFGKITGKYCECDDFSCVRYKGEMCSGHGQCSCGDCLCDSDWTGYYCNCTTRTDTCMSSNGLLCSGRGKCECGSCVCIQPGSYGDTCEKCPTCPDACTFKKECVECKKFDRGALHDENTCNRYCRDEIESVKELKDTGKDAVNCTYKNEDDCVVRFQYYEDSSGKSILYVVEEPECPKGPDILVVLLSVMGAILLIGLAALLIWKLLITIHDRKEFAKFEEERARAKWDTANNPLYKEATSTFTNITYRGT

IC50	SMILES
100 µM	COC(=O)N[C@@H](CNC(=O)c1ccc(OCCNc2ncccn2)cc1O)C(=O)O [Example 65, (2S)-3-({2-hydroxy-4-[2-(pyrimidin-2-ylamino)ethoxy]benzoyl}amino)-2-[(methoxycarbonyl)amino]propanoic acid]
100 µM	CCOC(=O)N[C@@H](CNC(=O)c1ccc(OCCNc2ncccn2)cc1O)C(=O)O [Example 66, (2S)-2-[(ethoxycarbonyl)amino]-3-({2-hydroxy-4-[2-(pyrimidin-2-ylamino)-ethoxy]benzoyl}amino)propanoic acid]
100 µM	CCCOC(=O)N[C@@H](CNC(=O)c1ccc(OCCNc2ncccn2)cc1O)C(=O)O [Example 67, (2S)-3-({2-hydroxy-4-[2-(pyrimidin-2-ylamino)ethoxy]benzoyl}amino)-2-[(propoxycarbonyl)amino]propanoic acid]
100 µM	CC(C)OC(=O)N[C@@H](CNC(=O)c1ccc(OCCNc2ncccn2)cc1O)C(=O)O [Example 68, (2S)-3-({2-hydroxy-4-[2-(pyrimidin-2-ylamino)ethoxy]benzoyl}amino)-2-[(isopropoxycarbonyl)amino]propanoic acid]
100 µM	C=CCOC(=O)N[C@@H](CNC(=O)c1ccc(OCCNc2ncccn2)cc1O)C(=O)O [Example 69, (2S)-2-{[(allyloxy)carbonyl]amino}-3-({2-hydroxy-4-[2-(pyrimidin-2-ylamino)ethoxy]benzoyl}amino)propanoic acid]
100 µM	C=CCCOC(=O)N[C@@H](CNC(=O)c1ccc(OCCNc2ncccn2)cc1O)C(=O)O [Example 70, (2S)-2-{[(but-3-enyloxy)carbonyl]amino}-3-({2-hydroxy-4-[2-(pyrimidin-2-ylamino)ethoxy]benzoyl}amino)propanoic acid]
> 1 µM	O=C(Nc1ccccc1)N[C@@H](CNC(=O)c1ccc(OCCNc2ncccn2)cc1O)C(=O)O [Example 71, (2S)-2-[(anilinocarbonyl)amino]-3-({2-hydroxy-4-[2-(pyrimidin-2-ylamino)ethoxy]-benzoyl}amino)propanoic acid]
> 1 µM	CC(C)(C)NC(=O)N[C@@H](CNC(=O)c1ccc(OCCNc2ncccn2)cc1O)C(=O)O [Example 72, (2S)-2-{[(tert-butylamino)carbonyl]amino}-3-({2-hydroxy-4-[2-(pyrimidin-2-ylamino)ethoxy]benzoyl}amino)propanoic acid]
> 1 µM	CCCCNC(=O)N[C@@H](CNC(=O)c1ccc(OCCNc2ncccn2)cc1O)C(=O)O [Example 73, (2S)-2-{[(butylamino)carbonyl]amino}-3-({2-hydroxy-4-[2-(pyrimidin-2-ylamino)ethoxy]benzoyl}amino)propanoic acid]
> 1 µM	Cc1ccccc1NC(=O)N[C@@H](CNC(=O)c1ccc(OCCNc2ncccn2)cc1O)C(=O)O [Example 78, (2S)-3-({2-hydroxy-4-[2-(pyrimidin-2-ylamino)ethoxy]benzoyl}amino)-2-[(2-toluidinocarbonyl)amino]propanoic acid]
> 1 µM	COc1ccccc1NC(=O)N[C@@H](CNC(=O)c1ccc(OCCNc2ncccn2)cc1O)C(=O)O [Example 79, (2S)-3-({2-hydroxy-4-[2-(pyrimidin-2-ylamino)ethoxy]benzoyl}amino)-2-{[(2-methoxyanilino)carbonyl]amino}propanoic acid]
> 1 µM	O=C(Nc1ccccc1Cl)N[C@@H](CNC(=O)c1ccc(OCCNc2ncccn2)cc1O)C(=O)O [Example 80, (2S)-2-{[(2-chloroanilino)carbonyl]amino}-3-({2-hydroxy-4-[2-(pyrimidin-2-ylamino)ethoxy]benzoyl}amino)propanoic acid]
> 1 µM	O=C(Nc1ccccc1Br)N[C@@H](CNC(=O)c1ccc(OCCNc2ncccn2)cc1O)C(=O)O [Example 81, (2S)-2-{[(2-bromoanilino)carbonyl]amino}-3-({2-hydroxy-4-[2-(pyrimidin-2-ylamino)ethoxy]benzoyl}amino)propanoic acid]
> 1 µM	O=C(Nc1ccccc1-c1ccccc1)N[C@@H](CNC(=O)c1ccc(OCCNc2ncccn2)cc1O)C(=O)O [Example 82, (2S)-2-{[([1,1′-biphenyl]-2-ylamino)carbonyl]amino}-3-({2-hydroxy-4-[2-(pyrimidin-2-ylamino)ethoxy]benzoyl}amino)propanoic acid]
> 1 µM	Cc1ccc(NC(=O)N[C@@H](CNC(=O)c2ccc(OCCNc3ncccn3)cc2O)C(=O)O)cc1 [Example 83, (2S)-3-({2-hydroxy-4-[2-(pyrimidin-2-ylamino)ethoxy]benzoyl}amino)-2-[(4-toluidinocarbonyl)amino]propanoic acid]
> 1 µM	O=C(Nc1ccc(OC(F)(F)F)cc1)N[C@@H](CNC(=O)c1ccc(OCCNc2ncccn2)cc1O)C(=O)O [Example 85, (2S)-3-({2-hydroxy-4-[2-(pyrimidin-2-ylamino)ethoxy]benzoyl}amino)-2-({[4-(trifluoromethoxy)anilino]carbonyl}amino)propanoic acid]
> 1 µM	O=C(Nc1ccc(Cl)cc1)N[C@@H](CNC(=O)c1ccc(OCCNc2ncccn2)cc1O)C(=O)O [Example 86, (2S)-2-{[(4-chloroanilino)carbonyl]amino}-3-({2-hydroxy-4-[2-(pyrimidin-2-ylamino)ethoxy]benzoyl}amino)propanoic acid]

IC50	SMILES
> 1 µM	O=C(Nc1ccc(F)cc1)N[C@@H](CNC(=O)c1ccc(OCCNc2ncccn2)cc1O)C(=O)O [Example 87, (2S)-2-{[(4-fluoroanilino)carbonyl]amino}-3-({2-hydroxy-4-[2-(pyrimidin-2-ylamino)ethoxy]benzoyl}amino)propanoic acid]
> 1 µM	CC(=O)c1ccc(NC(=O)N[C@@H](CNC(=O)c2ccc(OCCNc3ncccn3)cc2O)C(=O)O)cc1 [Example 88, (2S)-2-{[(4-acetylanilino)carbonyl]amino}-3-({2-hydroxy-4-[2-(pyrimidin-2-ylamino)ethoxy]benzoyl}amino)propanoic acid]
> 1 µM	O=C(NC1CCCCC1)N[C@@H](CNC(=O)c1ccc(OCCNc2ncccn2)cc1O)C(=O)O [Example 90, (2S)-2-{[(cyclohexylamino)carbonyl]amino}-3-({2-hydroxy-4-[2-(pyrimidin-2-ylamino)ethoxy]benzoyl}amino)propanoic acid]
> 1 µM	O=C(NCc1ccccc1)N[C@@H](CNC(=O)c1ccc(OCCNc2ncccn2)cc1O)C(=O)O [Example 92, (2S)-2-{[(benzylamino)carbonyl]amino}-3-({2-hydroxy-4-[2-(pyrimidin-2-ylamino)ethoxy]benzoyl}amino)propanoic acid]
> 1 µM	O=C(NCCc1ccccc1)N[C@@H](CNC(=O)c1ccc(OCCNc2ncccn2)cc1O)C(=O)O [Example 93, (2S)-3-({2-hydroxy-4-[2-(pyrimidin-2-ylamino)ethoxy]benzoyl}amino)-2-({[(2phenylethyl)amino]carbonyl}amino)propanoic acid]
> 1 µM	CCCCCCCCNC(=O)N[C@@H](CNC(=O)c1ccc(OCCNc2ncccn2)cc1O)C(=O)O [Example 94, (2S)-3-({2-hydroxy-4-[2-(pyrimidin-2-ylamino)ethoxy]benzoyl}amino)-2-{[(octylamino)carbonyl]amino}propanoic acid]
0.105 µM	CC(C)(C)COC(=O)N[C@@H](CNC(=O)c1ccc(OCCNC2=NCCN2)cc1O)C(=O)O [Example 95]
0.119 µM	O=C(N[C@@H](CNC(=O)c1ccc(OCCNC2=NCCN2)cc1O)C(=O)O)OCc1ccccc1 [Example 96, (2S)-2-{[(benzyloxy)carbonyl]amino}-3-({4-[2-(4,5-dihydro-1H-imidazol-2-ylamino)ethoxy]-2-hydroxybenzoyl}amino)propanoic acid]
0.77 µM	COC(=O)N[C@@H](CNC(=O)c1ccc(OCCNC2=NCCN2)cc1O)C(=O)O [Example 97, (2S)-3-({4-[2-(4,5-dihydro-1H-imidazol-2-ylamino)ethoxy]-2-hydroxybenzoyl}-amino)-2-[(methoxycarbonyl)amino]propanoic acid]
0.15 µM	CCOC(=O)N[C@@H](CNC(=O)c1ccc(OCCNC2=NCCN2)cc1O)C(=O)O [Example 98, (2S)-3-({4-[2-(4,5-dihydro-1H-imidazol-2-ylamino)ethoxy]-2-hydroxybenzoyl}-amino)-2-[(ethoxycarbonyl)amino]propanoic acid]
0.088 µM	CCCOC(=O)N[C@@H](CNC(=O)c1ccc(OCCNC2=NCCN2)cc1O)C(=O)O [Example 99, (2S)-3-({4-[2-(4,5-dihydro-1H-imidazol-2-ylamino)ethoxy]-2-hydroxybenzoyl}-amino)-2-[(propoxycarbonyl)amino]propanoic acid]
0.079 µM	CC(C)OC(=O)N[C@@H](CNC(=O)c1ccc(OCCNC2=NCCN2)cc1O)C(=O)O [Example 100, (2S)-3-({4-[2-(4,5-dihydro-1H-imidazol-2-ylamino)ethoxy]-2-hydroxybenzoyl}-amino)-2-[(isopropoxycarbonyl)amino]propanoic acid]
0.094 µM	C=CCOC(=O)N[C@@H](CNC(=O)c1ccc(OCCNC2=NCCN2)cc1O)C(=O)O [Example 101, (2S)-2-{[(allyloxy)carbonyl]amino}-3-({4-[2-(4,5-dihydro-1H-imidazol-2-ylamino)-ethoxy]-2-hydroxybenzoyl}amino)propanoic acid]
0.069 µM	C=CCCOC(=O)N[C@@H](CNC(=O)c1ccc(OCCNC2=NCCN2)cc1O)C(=O)O [Example 102, (2S)-2-{[(but-3-enyloxy)carbonyl]amino}-3-({4-[2-(4,5-dihydro-1H-imidazol-2-ylamino)ethoxy]-2-hydroxybenzoyl}amino)propanoic acid]
0.21 µM	C#CCOC(=O)N[C@@H](CNC(=O)c1ccc(OCCNC2=NCCN2)cc1O)C(=O)O [Example 103, (2S)-3-({4-[2-(4,5-dihydro-1H-imidazol-2-ylamino)ethoxy]-2-hydroxybenzoyl}-amino)-2-{[(prop-2-ynyloxy)carbonyl]amino}propanoic acid]
0.086 µM	CCCCCCOC(=O)N[C@@H](CNC(=O)c1ccc(OCCNC2=NCCN2)cc1O)C(=O)O [Example 104, (2S)-3-({4-[2-(4,5-dihydro-1H-imidazol-2-ylamino)ethoxy]-2-hydroxybenzoyl}-amino)-2-{[(hexyloxy)carbonyl]amino}propanoic acid]
